From PubChem BioAssay (NCI)
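In this assay, cells in 96-well plates receive the compound at five concentrations for 48 hours. Endpoints are linearly interpolated between the surrounding concentrations. TGI: total growth inhibition.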

What was measured:
Assay in all cases: NCI anticancer screen, dose series, 48 h
RXF 393 renal = tested on: RXF 393 renal
SN12C renal = tested on: SN12C renal
LOX IMVI melanoma = tested on: LOX IMVI melanoma
MDA-MB-231 breast = tested on: MDA-MB-231 breast
MDA-N = tested on: MDA-N
MDA-MB-435 = tested on: MDA-MB-435
OVCAR-3 ovarian = tested on: OVCAR-3 ovarian
UACC-62 melanoma = tested on: UACC-62 melanoma
MALME-3M melanoma = tested on: MALME-3M melanoma

Row | SMILES | TGI (RXF 393 renal) [µM] | TGI (SN12C renal) [µM] | TGI (LOX IMVI melanoma) [µM] | TGI (MDA-MB-231 breast) [µM] | TGI (MDA-N) [µM] | TGI (MDA-MB-435) [µM] | TGI (OVCAR-3 ovarian) [µM] | TGI (UACC-62 melanoma) [µM] | TGI (MALME-3M melanoma) [µM]
1 | COC(=O)OC[C@H]1O[C@@H](n2cc(C)c(=O)[nH]c2=O)CC1OC(=O)OC (stereo not given in full) | > 100 | > 100 | > 100 | > 100 | > 100 | > 100 | > 100 | > 100 | > 100
2 | COc1ccc2nc3ccc(OC)cc3c(S(=O)Cc3ccc([N+](=O)[O-])cc3)c2c1 (stereo not given) | 28.6 | 9.94 | 34.7 | 29.9 | 29.7 | 26 | 14.2 | 29.5 | 5.18
3 | c1ccc(COc2ccc(C[P+](c3ccccc3)(c3ccccc3)c3ccccc3)cc2)cc1 | 0.361 | 5.03 | 2.56 | 4.86 | 5.86 | 1.7 | 11 | 1.74 | 1.82
4 | O=C(C=P(c1ccccc1)(c1ccccc1)c1ccccc1)C12CC3CC(CC(C3)C1)C2 |  | 32.3 | 41.5 | 32.9 | 29.2 | 26.6 | 28.5 | 29.1 | 38
5 | CSc1nc2c(c(N(C)C)n1)C=Nn1c(nc3ccccc31)S2 | > 100 | > 100 | > 100 | > 100 | > 100 | > 100 | > 100 | > 100 | > 100
6 | COc1ccc(C[C@@H]2CN(C(=O)c3ccccc3)[C@H](Cc3ccc(O)cc3)CN2C(=O)c2ccccc2)cc1Br |  | > 100 | > 100 |  |  | > 100 | > 100 |  | > 100
7 | CCOC(=O)CC(C)C(C#N)(OP1(=O)OC(c2ccccc2)C(C)N1C)c1ccccc1 (stereo not given) | > 100 | > 100 | > 100 | > 100 | > 100 | > 100 | > 100 | > 100 | > 100
8 | Cc1c(C)c(C)c(-n2c(=O)n(C)c(=O)n2C(C)(C)C)c(C)c1C | > 100 | > 100 | > 100 | > 100 | > 100 | > 100 | > 100 | > 100 | 
9 | CC1C(c2ccc(N(C)C)cc2)c2cc3c(cc2OC1N1CCCC1)OCO3 (stereo not given) | > 100 | > 100 | > 100 |  | 46.9 | 60.4 | > 100 | > 100 | > 100
10 | C=C(NC(=O)C(=C)NC(=O)c1csc(C2=NC3c4csc(n4)C4NC(=O)c5csc(n5)C(C(C)(O)C(C)O)NC(=O)C5CSC(=N5)/C(=C/C)NC(=O)C(C(C)O)NC(=O)c5csc(n5)C3(CC2)NC(=O)C(C)NC(=O)C(=C)NC(=O)C(=C)NC(=O)C(C(C)C)NC2C=Cc3c(C(C)O)cc(nc3C2O)C(=O)OC4C)n1)C(N)=O (stereo not given) |  | > 38 | > 61.3 | > 100 | > 100 | > 52.8 | > 100 | 4.15 | 0.786
11 | CCC1(O)C=CC(=O)C=C1 | 38.2 | > 100 | 32.4 | 36.6 | > 100 | > 100 | 69.6 | 43.6 | 28.2
12 | CCOC(=O)NNC(=O)NCCNC(=O)NNC(=O)OCC | > 100 | > 100 | > 100 | > 100 | > 100 | > 100 | > 100 | > 100 | > 100
